The test system of one test is APP. Nature of the test: Western blot of APP and fragments in formic acid brain extracts of hAPP mice. The format is in vivo, mouse. How it is done: For Western blot analyses, frozen hemispheres of non-transgenic littermates were homogenized in TBS buffer containing 5 mM EDTA, 1 mM 1,10-phenanthroline (ICN Biomedicals), 20 μM ALLN (BioMol) and a protease inhibitor mixture (Roche). Homogenates were centrifuged at 100000 g for 1 hour at +4° C. The supernatants were used for analyses of secreted APP forms and ApoE, while the pellets extracted with the homogenization buffer containing 1% Triton X-100 and 0.2% SDS. 120 μg of total protein were resolved on 4-12% or 12% NuPAGE Bis-Tris gels (Invitrogen) under reducing conditions, and Western blots were performed as described previously (Puglielli et al., 2001). For analysis of Notch-ICD (NICD), 250 μg of total protein was immunoprecipitated with an NICD-specific antibody (cleavage site (Val1744)-specific; Cell Signaling Technology) according to manufacturer's recommendations. […] Densitometric analyses were performed using the QuantityOne software package (Bio-Rad). Statistical significance was determined by Student's t test. […]
On the technique in general: Immunoblotting shows a protein as a band on a membrane.

A further test concerns Aβ1-40 and Aβ1-42. Nature of the test: Sandwich ELISA of brain Aβ1-40 and Aβ1-42 in hAPP mice. Type of test: in vivo, mouse. The procedure:
For Aβ determinations, frozen hemispheres were first homogenized in TBS-buffer (5 ml) containing a protease inhibitor cocktail (Protease Inhibitor Cocktail Set I, Calbiochem) and then centrifuged at 75000 g for 1 hour, as described elsewhere (Kawarabayashi et al., 2001). Supernatants were saved for soluble Aβ analyses (see below). Pellets were resuspended and further homogenized in 70% formic acid (1 ml), followed by centrifugation at 75000 g for 1 hour. Formic acid-supernatants were neutralized with 1M TRIS (19 ml) and used for ELISA determination (insoluble Aβ). Aβ1-40 and Aβ1-42 were assayed using commercially available ELISA kits (The Genetics Company®, Switzerland). Measurements were performed at least in duplicate. Soluble Aβ ELISAs: secreted Aβ1-40 and Aβ1-42 levels in the TBS homogenate were analyzed by a sandwich ELISA system as described previously using the following antibodies: Aβ40=MM27 33.1.1 capture, MM32 13.1.1 for detection; Aβ42=MM27 33.1.1 capture, MM26 4.1.3 for detection (Suzuki et al., 1994).
We next used a sandwich enzyme-linked immunosorbent assay (ELISA) to measure Aβ1-40 and Aβ1-42 levels in 70% formic acid extracts from brain homogenates (“insoluble” Aβ) and in the initial TBS fraction of the same homogenates (soluble Aβ). Similar to plaque load, Aβ levels varied widely, as expected in transgenic mice specifically at early stages of pathology (Johnson-Wood et al., 1997; Kawarabayashi et al., 2001). Treatment with CP-113,818 decreased Aβ1-40 and Aβ1-42 in the formic acid fraction to almost undetectable concentrations. […] Since brain extracts were obtained from entire hemispheres including cortices and hippocampi, the difference between male and female Aβ levels at this age was accentuated by the slowly developing amyloid pathology in male hippocampi (see FIG. 3B). When analyzed according to gender, only female “insoluble” Aβ was sufficiently elevated to obtain a highly significant decrease by CP-113,818 treatment, with Aβ1-40 down by 96% (p<0.014) and Aβ1-42 down by 90% (p<0.014; FIG. 5A). […] This decrease was statistically significant in both genders. Soluble Aβ1-40 levels were close to the limit of detection, but a trend toward decrease was observed (20%) in all animals, significant only in males (FIG. 5B).
(ELISA stands for enzyme-linked immunosorbent assay.)

Where [1] appears, read: female hAPP mice, brain formic acid extracts.
[2] abbreviates: hAPP mice, all animals, brain formic acid extracts.

The structures appear in SMILES notation.

Turning to `CCCCCCCC[C@H](SCCCCCC)C(=O)Nc1c(SC)cc(C)nc1SC` [CP-113,818], the “full-length APP and APP C-terminal fragments C83 and C99” value in the test on APP is “unchanged”. Also, the “decrease of sAPP levels” value in the test with APP (adjusted to full-length APP) stood at 60%. Besides, in the test on Aβ1-40 and Aβ1-42 (setting [1]), the “decrease in insoluble Aβ1-40, females” value stood at 96% and the “decrease in insoluble Aβ1-42, females” value was 90%. Further, the “reduction of soluble Aβ1-42” value in the test on Aβ1-40 and Aβ1-42 (hAPP mice, TBS fraction lacking detergents) stood at 34%. Also, in the test on Aβ1-40 and Aβ1-42 (setting [2]), the “decrease in insoluble Aβ1-40” value is listed as 92% and the “decrease in insoluble Aβ1-42” value is on record as 83%. Also, the Aβ1-42/Aβ1-40 ratio result in the test on Aβ1-40 and Aβ1-42 (hAPP mice, insoluble Aβ) is given as “no significant difference”. Besides, in the test with Aβ1-40 and Aβ1-42 (transgenic mice), the “decrease of "insoluble" Aβ (summary)” value was 83-99%.

For the origin of these results see US20050118226A1, “Methods for treating ACAT-related diseases” (priority 2003, published 2005).
